Measurements taken from patent US20090023687A1, “Method for Controlling Phytopathogenic Organisms” (SYNGENTA CROP PROTECTION, INC., priority 2005, published 2009).

Assays:
Assay type in all cases: in vivo
Phakopsora pachyrhizi [1] = experiment: whole plant or invertebrate; settings: in Glycine max, foliar, read-out: % activity observed
Excerpt: (§1) A synergistic effect exists whenever the action of an active ingredient combination is greater than the action expected from the effect of the individual components.
(§2) The action to be expected (E) for a given active ingredient combination obeys the so-called COLBY formula and can be calculated as follows (COLBY, S. R. “Calculating synergistic and antagonistic responses of herbicide combination”. Weeds, Vol. 15, pages 20-22; 1967):
(§3) ppm=milligrams of active ingredient (=a.i.) per litre of spray mixture X=% action by active ingredient I using p ppm of active ingredient Y=% action by active ingredient II using q ppm of active ingredient.
(§4) According to Colby, the expected (additive) action of active ingredients I+II using p+q ppm of active ingredient is
(§5) If the action actually observed (O) is greater than the expected action (E), then the action of the combination is superadditive, i.e. there is a synergistic effect.
(§6) A series of leaf disc tests were conducted to show the effects of tank mixtures of glyphosate and the ortho-substituted phenyl-amide (OPA) fungicides represented by structures F-5 and F-9 on Asian soybean rust. The soybean variety tested was brand Williams82 glyphosate sensitive soybean. The leaf source for the testing was the first trifoliate leaf. Six (6) repetitions for each formulation and at each rate were conducted. Treatment of the leaf with the recited active ingredients was conducted 4 weeks after planting. The leaves were inoculated with Phakopsora pachyrhizi (Asian soybean rust (ASR)) one (1) day after treatment. Evaluation of the leaf was conducted ten (10) days after inoculation and the mean percent infestation of the six repetitions is reported in Tables 3 and 4.
The glyphosate source was Touchdown® HiTech herbicide (Syngenta Corp.), containing the potassium salt of glyphosate and no adjuvant system. The compound OPA F-5 used was a compound of formula F-5, wherein the ratio of racemic compounds of formula F-3 (syn) to racemic compounds of formula F-4 (anti) was 9:1. The compound OPA F-9 used was a compound of formula F-9, wherein the ratio of racemic compounds of formula F-7 (trans) to racemic compounds of formula F-8 (cis) was around 100:1. The fungicides used were EC100 formulations of OPA F-5 and OPA F-9 which are emulsion concentrates containing 100 ga.i./L. The rates of the active ingredients used in the tests are set in the table as mg active ingredient (a.i.)/L.

Phakopsora pachyrhizi [2] = experiment: Leaf disc test with Phakopsora pachyrhizi on glyphosate sensitive soybean, leaf disks treated (Example 4)
Excerpt: as §1, §2, §3, §4, §5
as §6, with “glyphosate and pesticides or plant activators on Asian” for “glyphosate and the ortho-substituted phenyl-amide (OPA) fungicides represented by structures F-5 and F-9 on Asian”, “the leaf disks with the” for “the leaf with the”, “in Tables 8-11.” for “in Tables 3 and 4.”
As glyphosate source Touchdown® HiTech or Zapp® QI was used. The fungicides were used as commercial formulations: Bion® WG50 plant activator comprising acibenzolar-S-methyl (Syngenta Corp.), Opus® SC125 fungicide comprising epoxiconazole commercially (BASF AG), Tilt® EC250 fungicide comprising propiconazole (Syngenta Corp.), Quadris® SC250 fungicide comprising azoxystrobin (Syngenta Corp.). The rates of the active ingredients used in the tests are set in Tables 8-11 as mg active ingredient (a.i.)/L.

Phakopsora pachyrhizi [3] = experiment: Application on whole plants: leaf disc test with Phakopsora pachyrhizi on glyphosate tolerant soybean (Example 6)
Excerpt: as §1, §2, §3, §4, §5
Leaf disc tests were conducted to show the effects of tank mixtures of glyphosate and pesticides or plant activators on Asian soybean rust. The soybean variety tested was brand S40-R9 glyphosate tolerant soybean. The leaf source for the testing was the first trifoliate leaf. Six (6) repetitions for each formulation and at each rate were conducted. […] were cut and inoculated with Phakopsora pachyrhizi (Asian soybean rust (ASR)) one (1) day after treatment. Evaluation of the leaf was conducted ten (10) days after inoculation and the mean percent infestation of the six repetitions is reported in Tables 15-17.
As glyphosate source Touchdown® HiTech or Zapp® QI was used. The fungicides were used as commercial formulations: Bravo® SC500 fungicide comprising chlorothalonil (Syngenta Corp.), Score® EC250 fungicide comprising difenaconazole (Syngenta Corp.) and Mancozeb 80WP fungicide comprising mancozeb. The rates of the active ingredients used in the tests are set in Tables 15-17 as g active ingredient (a.i.)/hectare (ha). The spray volume was 200 l/ha.

[4] = Glyphosate TD HiTech SL523 2.5 mg a.i./L, Table 9 (check 77)
[5] = Glyphosate TD HiTech SL523 2.5 mg a.i./L, Table 11 (check 80)
[6] = Glyphosate TD HiTech SL523 7.4 mg a.i./L, Table 11 (check 80)
[7] = Glyphosate TD HiTech SL523 7.4 mg a.i./L, Tables 9-10 (check 77)
[8] = Glyphosate TD HiTech SL523 22.2 mg a.i./L
[9] = Glyphosate Zapp QI SL500 22.2 mg a.i./L
[10] = Glyphosate Zapp QI SL500 66.7 mg a.i./L
[11] = Glyphosate TD HiTech SL523 500 g a.i./ha, Tables 15, 17 (check 60)
[12] = Glyphosate TD HiTech SL523 1500 g a.i./ha, Table 16 (check 49)
[13] = Glyphosate TD HiTech SL523 1500 g a.i./ha, Tables 15, 17 (check 60)

Work on O=C(O)CNCP(=O)(O)O [Glyphosate, glyphosate] yielded an inhibition at 2.5 µg/mL (Phakopsora pachyrhizi [1]; Glyphosate 2.5 mg a.i./L (Touchdown HiTech)) of 0%, an inhibition at 7.4 µg/mL (Phakopsora pachyrhizi [1]; Glyphosate 7.4 mg a.i./L (Touchdown HiTech)) of 0% and an inhibition at 22.2 µg/mL (Phakopsora pachyrhizi [1]; Glyphosate 22.2 mg a.i./L (Touchdown HiTech)) of 14%. It also gave an inhibition at 66.7 µg/mL (Phakopsora pachyrhizi [1]; Glyphosate 66.7 mg a.i./L (Touchdown HiTech)) of 0%, an inhibition at 200 µg/mL (Phakopsora pachyrhizi [1]; Glyphosate 200.0 mg a.i./L (Touchdown HiTech)) of 0% and an inhibition at 600 µg/mL (Phakopsora pachyrhizi [1]; Glyphosate 600 mg a.i./L (Touchdown HiTech)) of 34%. It also gave an Activity observed % (Phakopsora pachyrhizi [2]; [4]) of 0%, a Leaf attack % (Phakopsora pachyrhizi [2]; [4]) of 80% and an Activity observed % (Phakopsora pachyrhizi [2]; [5]) of 8%. The Leaf attack % (Phakopsora pachyrhizi [2]; [5]) was 74%, the Activity observed % (Phakopsora pachyrhizi [2]; [6]) was 0% and the Leaf attack % (Phakopsora pachyrhizi [2]; [6]) was 80%. The Activity observed % (Phakopsora pachyrhizi [2]; [7]) was 0%, the Leaf attack % (Phakopsora pachyrhizi [2]; [7]) was 80% and the Activity observed % (Phakopsora pachyrhizi [2]; [8]) was 0%. The Leaf attack % (Phakopsora pachyrhizi [2]; [8]) was 80%, the Activity observed % (Phakopsora pachyrhizi [2]; [9]) was 1% and the Leaf attack % (Phakopsora pachyrhizi [2]; [9]) was 68%. For the same compound, the Activity observed % (Phakopsora pachyrhizi [2]; [10]) was 1%, the Leaf attack % (Phakopsora pachyrhizi [2]; [10]) was 68% and the Activity observed % (Phakopsora pachyrhizi [3]; [11]) was 0%. It also gave a Leaf attack % (Phakopsora pachyrhizi [3]; [11]) of 68%, an Activity observed % (Phakopsora pachyrhizi [3]; [12]) of 44% and a Leaf attack % (Phakopsora pachyrhizi [3]; [12]) of 28%. The Activity observed % (Phakopsora pachyrhizi [3]; [13]) was 17% and the Leaf attack % (Phakopsora pachyrhizi [3]; [13]) was 50%.
